Source: US11702404B2, “GLP-1R modulating compounds” (priority 2019, dated 2023)

Legend:
[1] = Microsomal stability, human liver microsomes (predicted hepatic clearance); details: predicted from in vitro microsomal stability data
GLP-1R = GLP-1R (Homo sapiens, UniProt P43220); test: GLP-1R activation: cAMP increase in CHO cells stably expressing GLP-1R; assay type: cell-based; details: cAMP increase, CHO cells stably expressing GLP-1R, 10 point dose response, 30 minutes incubation; read-out: EC50
Sequence of GLP-1R (P43220 24-463): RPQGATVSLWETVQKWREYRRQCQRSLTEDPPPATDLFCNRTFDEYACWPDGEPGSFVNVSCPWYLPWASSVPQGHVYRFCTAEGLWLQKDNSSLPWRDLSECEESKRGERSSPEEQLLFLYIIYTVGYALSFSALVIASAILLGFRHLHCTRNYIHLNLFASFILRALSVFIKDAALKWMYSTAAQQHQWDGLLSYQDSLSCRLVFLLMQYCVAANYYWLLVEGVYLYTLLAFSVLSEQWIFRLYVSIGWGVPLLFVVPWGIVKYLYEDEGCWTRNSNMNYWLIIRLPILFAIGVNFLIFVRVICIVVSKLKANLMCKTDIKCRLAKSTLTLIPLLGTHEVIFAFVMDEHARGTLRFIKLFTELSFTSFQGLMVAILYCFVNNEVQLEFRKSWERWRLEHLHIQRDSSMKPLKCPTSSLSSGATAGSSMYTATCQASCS

Compound	Predicted Hepatic Clearance (Pred. Cl.) [1]	EC50 (GLP-1R)
COCCn1c(Cc2ccc(-c3cccc(OCc4ccc(C#N)cc4OCC(F)F)n3)cc2F)nc2ccc(C(=O)O)cc21 [Example 245, 2-(4-(6-((4-cyano-2-(2,2-difluoroethoxy)benzyl)oxy)pyridin-2-yl)-2-fluorobenzyl)-1-(2-methoxyethyl)-1H-benzo[d]imidazole-6-carboxylic acid]	4.5 mL/min/kg	140 nM
COCCn1c(Cc2ccc(-c3cccc(OC4CCOc5cc(C#N)ccc54)n3)cc2F)nc2ccc(C(=O)O)cc21 (centres unmarked) [Example 246, 2-(4-(6-((7-cyanochroman-4-yl)oxy)pyridin-2-yl)-2-fluorobenzyl)-1-(2-methoxyethyl)-1H-benzo[d]imidazole-6-carboxylic acid]	4.67 mL/min/kg	1110 nM
COCCn1c(Cc2ccc(-c3cccc(OCc4ccccc4SC(F)(F)F)n3)cc2F)nc2ccc(C(=O)O)cc21 [Example 248, 2-(2-fluoro-4-(6-((2-((trifluoromethyl)thio)benzyl)oxy)pyridin-2-yl)benzyl)-1-(2-methoxyethyl)-1H-benzo[d]imidazole-6-carboxylic acid]	17.8 mL/min/kg	3560 nM
COCCn1c(Cc2ccc(-c3cccc(OCc4ccccc4SC)n3)cc2F)nc2ccc(C(=O)O)cc21 [Example 249, 2-(2-fluoro-4-(6-((2-(methylthio)benzyl)oxy)pyridin-2-yl)benzyl)-1-(2-methoxyethyl)-1H-benzo[d]imidazole-6-carboxylic acid]	15.5 mL/min/kg	172 nM

These reach a lower EC50 (GLP-1R). Values come first.

Predicted Hepatic Clearance (Pred. Cl.) [1]	EC50 (GLP-1R)	Compound
<1.83 mL/min/kg	68.6 nM	COCCn1c(Cc2ccc(-c3cccc(OCc4ccc(C#N)cc4F)n3)cc2C#Cc2cncnc2)nc2ccc(C(=O)O)cc21 [Example 254, 2-(4-(6-((4-cyano-2-fluorobenzyl)oxy)pyridin-2-yl)-2-(pyrimidin-5-ylethynyl)benzyl)-1-(2-methoxyethyl)-1H-benzo[d]imidazole-6-carboxylic acid]
<1.83 mL/min/kg	11.7 nM	COCCn1c(Cc2ccc(-c3cccc(OCc4ccc5c(c4)OC(F)(F)O5)n3)cc2F)nc2ccc(C(=O)O)cc21 [Example 250, 2-(4-(6-((2,2-difluorobenzo[d][1,3]dioxol-5-yl)methoxy)pyridin-2-yl)-2-fluorobenzyl)-1-(2-methoxyethyl)-1H-benzo[d]imidazole-6-carboxylic acid]
<1.83 mL/min/kg	3.78 nM	COCCn1c(Cc2ccc(-c3cccc(OCc4ccc(F)cc4OC)n3)cc2F)nc2ccc(C(=O)O)cc21 [Example 252, 2-(2-fluoro-4-(6-((4-fluoro-2-methoxybenzyl)oxy)pyridin-2-yl)benzyl)-1-(2-methoxyethyl)-1H-benzo[d]imidazole-6-carboxylic acid]
8.17 mL/min/kg	3.31 nM	COCCn1c(Cc2ccc(-c3cccc(OCc4ccc(C#N)cc4F)n3)cc2C#CCCO)nc2ccc(C(=O)O)cc21 [Example 255, 2-(4-(6-((4-cyano-2-fluorobenzyl)oxy)pyridin-2-yl)-2-(4-hydroxybut-1-yn-1-yl)benzyl)-1-(2-methoxyethyl)-1H-benzo[d]imidazole-6-carboxylic acid]
<1.83 mL/min/kg	3.13 nM	COCCn1c(Cc2ccc(-c3cccc(OCc4cc(F)c(C#N)cc4OC)n3)cc2F)nc2ccc(C(=O)O)cc21 [Example 251, 2-(4-(6-((4-cyano-5-fluoro-2-methoxybenzyl)oxy)pyridin-2-yl)-2-fluorobenzyl)-1-(2-methoxyethyl)-1H-benzo[d]imidazole-6-carboxylic acid]
6.83 mL/min/kg	2.2 nM	COCCn1c(Cc2ccc(-c3cccc(OCc4ccc(Cl)cc4OC)n3)cc2F)nc2ccc(C(=O)O)cc21 [Example 247, 2-(4-(6-((4-chloro-2-methoxybenzyl)oxy)pyridin-2-yl)-2-fluorobenzyl)-1-(2-methoxyethyl)-1H-benzo[d]imidazole-6-carboxylic acid]
